Test results published in US20230348424A1, “HETEROCYCLIC COMPOUNDS AND METHODS OF USE” (Schrödinger, Inc., priority 2022, published 2023).

How the values were obtained:
[1] = molecular target: SOS1:KRAS (G12C) interaction (Homo sapiens (Human), UniProt Q07889); test: SOS1 KRas(G12C) FRET Assay; type: binding; settings: 0.5 nM His10-SOS1 (res. 564-1049), 2.5 nM GST-KRAS G12C (res. 1-169), 2 hrs at RT
Method in brief: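 GST-KRAS G12C (res. 1-169) at 2.5 nM and His10-SOS1 (res. 564-1049) at 0.5 nM, final, in PBS with 0.1% BSA, 5 mM MgCl2, 100 mM KF, 5 mM DTT and 0.5% DMSO. After 2 h at RT, FRET read at 665/615 nm and normalized to DMSO and no-SOS1 controls. IC50 by non-linear regression.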

human SOS1 = human SOS1 (Homo sapiens (Human), UniProt Q07889); test: Surface Plasmon Resonance (SPR) SOS1 Binding Assay; settings: biotinylated SOS1 (res. 564-1049), Biacore 8K, 25° C., kinetic or steady state fit, 1:1 binding; read-out: hSOS1 KD
Method in brief: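 Biotinylated Avi-tagged human SOS1 (res. 564-1049) captured on streptavidin chip (~3,000 RU); compounds injected 60 s, dissociation 600 s, at 25° C in Tris pH 8.0 buffer with 5% DMSO. Reference- and blank-subtracted; KD from kinetic or steady-state 1:1 binding fit.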

Compound	IC50 [1] [µM]	Kd (human SOS1) [µM]
C[C@@H](NC(=O)c1cn(C2(C(F)F)CC2)c(=O)cc1NC[C@@H]1CC2CCN1CC2)c1cccc(C(F)F)c1F [Example 85, N-((R)-1-(3-(difluoromethyl)-2-fluorophenyl)ethyl)-1-(1-(difluoromethyl)cyclopropyl)-6-oxo-4-((((S)-quinuclidin-2-yl)methyl)amino)-1,6-dihydropyridine-3-carboxamide]	0.0261	0.012
C[C@@H](NC(=O)c1cn(C2(C(F)F)CC2)c(=O)cc1NCCN1CCOCC1)c1cccc(C(F)F)c1F [Example 81, (R)-N-(1-(3-(difluoromethyl)-2-fluorophenyl)ethyl)-1-(1-(difluoromethyl)cyclopropyl)-4-((2-morpholinoethyl)amino)-6-oxo-1,6-dihydropyridine-3-carboxamide]	0.174	0.096
C[C@@H](NC(=O)c1cn([C@H]2CCC2(F)F)c(=O)cc1N[C@H]1[C@@H]2CN(C)C[C@@H]21)c1cccc(C(F)F)c1F (single isomer, unassigned) [Example 104]	0.0454	0.024
Cc1c([C@@H](C)NC(=O)c2cn(C3CCOCC3)c(=O)cc2NCCCN(C)C)cccc1C(F)(F)F [Example 9, (R)-4-((3-(dimethylamino)propyl)amino) -N-(1-(2-methyl-3-(trifluoromethyl)phenyl)ethyl)-6-oxo-1-(tetrahydro-2H-pyran-4-yl)-1,6-dihydropyridine-3-carboxamide]	0.039	0.017
C[C@@H](NC(=O)c1cn(C2(C(F)F)CC2)c(=O)cc1NCCN(C)C)c1cccc(C(F)F)c1F [Example 61, (R)-N-(1-(3-(difluoromethyl)-2-fluorophenyl)ethyl)-1-(1-(difluoromethyl)cyclopropyl)-4-((2-(dimethylamino)ethyl)amino)-6-oxo-1,6-dihydropyridine-3-carboxamide]	0.065	0.034
C[C@@H](NC(=O)c1cn(C2(C(F)F)CC2)c(=O)cc1NC1CCN(CCF)CC1)c1cccc(C(F)F)c1F [Example 82, (R)-N-(1-(3-(difluoromethyl)-2-fluorophenyl)ethyl)-1-(1-(difluoromethyl)cyclopropyl)-4-((1-(2-fluoroethyl)piperidin-4-yl)amino)-6-oxo-1,6-dihydropyridine-3-carboxamide]	0.0263	0.017
C[C@@H](NC(=O)c1cn([C@@H]2CCC2(F)F)c(=O)cc1N[C@H]1[C@@H]2CN(C)C[C@@H]21)c1cccc(C(F)(F)F)c1F (single isomer, unassigned) [Example 145]	0.0352	0.037
N-((R)-1-(2-fluoro-3- (trifluoromethyl)phenyl)et hyl)-4-(((1R,5S,6s)-3- methyl-3- azabicyclo[3.1.0]hexan-6- yl)amino)-6-oxo-1-(1- (trifluoromethyl)cycloprop yl)-1,6-dihydropyridine-3- carboxamide [Example 120]	0.0357	0.024
C[C@@H](NC(=O)c1cn(C2CC2)c(=O)cc1N[C@H]1[C@@H]2CN(C)C[C@@H]21)c1cccc(C(F)F)c1F [Example 101, 1-cyclopropyl-N-((R)-1-(3-(difluoromethyl)-2-fluorophenyl)ethyl)-4-(((1R,5S,6s)-3-methyl-3-azabicyclo[3.1.0]hexan-6-yl)amino)-6-oxo-1,6-dihydropyridine-3-carboxamide]	0.024	0.011
C[C@@H](NC(=O)c1cn([C@]2(C)CCOC2)c(=O)cc1N[C@H]1[C@@H]2CN(C)C[C@@H]21)c1cccc(C(F)F)c1F [Example 152, N-((R)-1-(3-(difluoromethyl)-2-fluorophenyl)ethyl)-4-(((1R,5S,6s)-3-methyl-3-azabicyclo[3.1.0]hexan-6-yl)amino)-1-((R)-3-methyltetrahydrofuran-3-yl)-6-oxo-1,6-dihydropyridine-3-carboxamide]	0.0074	0.004
C[C@@H](NC(=O)c1cn(C23CC(C(F)F)(C2)C3)c(=O)cc1N[C@H]1[C@@H]2CN(C)C[C@@H]21)c1cccc(C(F)F)c1F [Example 105, N-((R)-1-(3-(difluoromethyl)-2-fluorophenyl)ethyl)-1-(3-(difluoromethyl)bicyclo [1. 1.1]pentan-1-yl)-4-(((1R,5S,6s)-3-methyl-3-azabicyclo[3.1.0]hexan-6-yl)amino)-6-oxo-1,6-dihydropyridine-3-carboxamide]	0.013	0.009
C[C@@H](NC(=O)c1cn([C@@H]2CC23CCC3)c(=O)cc1N[C@H]1[C@@H]2CN(C)C[C@@H]21)c1cccc(C(F)F)c1F (single isomer, unassigned) [Example 118]	0.0166	0.011
C[C@@H](NC(=O)c1cn([C@@H]2CC2(F)F)c(=O)cc1N[C@H]1[C@@H]2CN(C)C[C@@H]21)c1cccc(C(F)F)c1F (single isomer, unassigned) [Example 92]	0.0161	0.009
Cc1c([C@@H](C)NC(=O)c2cn(C3CCOCC3)c(=O)cc2N[C@H]2CCN(C)C2)cccc1C(F)(F)F [Example 4, N-((R)-1-(2-methyl-3-(trifluoromethyl)phenyl)ethyl)-4-(((S)-1-methylpyrrolidin-3-yl)amino)-6-oxo-1-(tetrahydro-2H-pyran-4-yl)-1,6-dihydropyridine-3-carboxamide]	0.0459	0.016
Cc1c([C@@H](C)NC(=O)c2cn(C3CCOCC3)c(=O)cc2N[C@@H]2CC[C@@H](O)C2)cccc1C(F)(F)F [Example 14, 4-(((1R,3R)-3-hydroxycyclopentyl)amino)-N-((R)-1-(2-methyl-3-(trifluoromethyl)phenyl)ethyl)-6-oxo-1-(tetrahydro-2H-pyran-4-yl)-1,6-dihydropyridine-3-carboxamide]	0.225	0.103
C[C@@H](NC(=O)c1cn(C2(C(F)F)CC2)c(=O)cc1N[C@H]1[C@@H]2CN(C)C[C@@H]21)c1cccc(C(C)(F)F)c1F [Example 121, N-((R)-1-(3-(1,1-difluoroethyl)-2-fluorophenyl)ethyl)-1-(1-(difluoromethyl)cyclopropyl)-4-(((1R,5S,6s)-3-methyl-3-azabicyclo[3.1.0]hexan-6-yl)amino)-6-oxo-1,6-dihydropyridine-3-carboxamide]	0.0289	0.021
C[C@@H](NC(=O)c1cn([C@H]2CC2(F)F)c(=O)cc1N[C@H]1[C@@H]2CN(C)C[C@@H]21)c1cccc(C(F)F)c1F [Example 93, 1-((S)-2,2-difluorocyclopropyl)-N-((R)-1-(3-(difluoromethyl)-2-fluorophenyl)ethyl)-4-(((lR,5S,6s)-3-methyl-3-azabicyclo[3.1.0]hexan-6-yl)amino)-6-oxo-1,6-dihydropyridine-3-carboxamide]	0.0232	0.013
C[C@@H](NC(=O)c1cn(C2CC2)c(=O)cc1N[C@@H]1[C@@H]2CC[C@H]1CN(C)C2)c1cccc(C(F)F)c1F (single isomer, unassigned) [Example 140]	0.0152	0.007
Cc1c([C@@H](C)NC(=O)c2cn(C3CCOCC3)c(=O)cc2N[C@@H]2CCN(C)C2)cccc1C(F)(F)F [Example 3, N-((R)-1-(2-methyl-3-(trifluoromethyl)phenyl)ethyl)-4-(((R)-1-methylpyrrolidin-3-yl)amino)-6-oxo-1-(tetrahydro-2H-pyran-4-yl)-1,6-dihydropyridine-3-carboxamide]	0.0412	0.016
C[C@@H](NC(=O)c1cn([C@@]2(C)CCOC2)c(=O)cc1N[C@H]1[C@@H]2CN(C)C[C@@H]21)c1cccc(C(F)F)c1F (single isomer, unassigned) [Example 151]	0.0473	0.012
C[C@@H](NC(=O)c1cn(C2(C(F)F)CC2)c(=O)cc1N[C@@H]1CN2CCC1CC2)c1cccc(C(F)F)c1F [Example 84, N-((R)-1-(3-(difluoromethyl)-2-fluorophenyl)ethyl)-1-(1-(difluoromethyl)cyclopropyl)-6-oxo-4-(((S)-quinuclidin-3-yl)amino)-1,6-dihydropyridine-3-carboxamide]	0.0102	0.009
C[C@@H](NC(=O)c1cn(C23CC(C2)C3)c(=O)cc1N[C@H]1[C@@H]2CC[C@H]1CN(C)C2)c1cccc(C(F)F)c1F (single isomer, unassigned) [Example 135]	0.0521	0.031
COC1(CNc2cc(=O)n(C3CCOCC3)cc2C(=O)N[C@H](C)c2cccc(C(F)(F)F)c2C)CN(C)C1 [Example 29, (R)-4-(((3-methoxy-1-methylazetidin-3-yl)methyl)amino)-N-(1-(2-methyl-3-(trifluoromethyl)phenyl)ethyl)-6-oxo-1-(tetrahydro-2H-pyran-4-yl)-1,6-dihydropyridine-3-carboxamide]	0.0191	0.011
Cc1c([C@@H](C)NC(=O)c2cn(C3CCOCC3)c(=O)cc2N[C@H]2CC[C@H](O)C2)cccc1C(F)(F)F [Example 13, 4-(((1S,3S)-3-hydroxycyclopentyl)amino)-N-((R)-1-(2-methyl-3-(trifluoromethyl)phenyl)ethyl)-6-oxo-1-(tetrahydro-2H-pyran-4-yl)-1,6-dihydropyridine-3-carboxamide]	0.155	0.091
C[C@@H](NC(=O)c1cn(C2CC2)c(=O)cc1N[C@H]1[C@@H]2CC[C@H]1CN(C)C2)c1cccc(C(F)F)c1F (single isomer, unassigned) [Example 141]	0.0628	0.033
